Test results from US6447818B1, “Compositions containing compounds with adrenergic activity and vegetable extracts of Crataegus and gingko biloba for the treatment of overweight and obesity” (Ambros Pharma S.R.L., priority 1999, dated 2002).

Tested on: systemic arterial pressure and cardiac frequency in the rat
Test: Hypertensive and tachycardic effects of adrenergic substances and extracts in the anesthetized rat
Assay type: in vivo
Details: i.v., anesthetized male Wistar rats, dose-dependent
Excerpt: 1. Effects of Crataegus Extract and Oterin® on Hypertension Induced with Ephedrine or with Extract of Ephedra Sinica Standardized in Ephedrine or Induced with Synephrine, or with Extract of Citrus Aurantium Standardized in Synephrine in the Rat
Male Wistar rats (Charles River, Calco-CO) weighing 180-200 grams were used. The animals were anesthetized with ethylurethane (1.2-1.5 g/kg i.p.) and prepared for the recording of systemic arterial pressure (via the carotid artery) and cardiac frequency. Individual examples of the registration (copies of the original tracings) and the summary of the mean data (±SEM) are given in FIGS. 1-4.
The dosages of synephrine leading to hypertensive activity were slightly higher (0.5-2 mg/kg i.v.) (FIGS. 2A, 3C). […] Tachycardia was induced in the same dose-dependent manner (FIGS. 3A, 3B).

CNCC(O)c1ccc(O)cc1 (stereo not shown) [synephrine]
dosages inducing hypertensive effects on the arterial pressure: 0.5 to 2 mg/kg
